The values that follow come from US9023789B2, “Amylin analogs and pharmaceutical compositions thereof” (Novo Nordisk A/S, priority 2012, dated 2015).

A short description of data set [1]: ASSAY (IV) determination of solubility. Type of data set: physicochemical. The essentials:
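Solubility measured by UPLC of supernatant after centrifugation, following 18 h at room temperature. Peptide ([…] in water) was diluted 1:1 into 100 mM glycylglycine (pH 3.0, 4.0, 5.0) or bistrispropane (pH 6.0-8.0).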

The target in data set [2] is T1, human amylin receptor (membranes from Amylin 3(a)/CRE-luc cells) (Homo sapiens, UniProt O60896+P30988).
T1 construct: expressed in transfected cells
T1 sequence (P30988 25-474): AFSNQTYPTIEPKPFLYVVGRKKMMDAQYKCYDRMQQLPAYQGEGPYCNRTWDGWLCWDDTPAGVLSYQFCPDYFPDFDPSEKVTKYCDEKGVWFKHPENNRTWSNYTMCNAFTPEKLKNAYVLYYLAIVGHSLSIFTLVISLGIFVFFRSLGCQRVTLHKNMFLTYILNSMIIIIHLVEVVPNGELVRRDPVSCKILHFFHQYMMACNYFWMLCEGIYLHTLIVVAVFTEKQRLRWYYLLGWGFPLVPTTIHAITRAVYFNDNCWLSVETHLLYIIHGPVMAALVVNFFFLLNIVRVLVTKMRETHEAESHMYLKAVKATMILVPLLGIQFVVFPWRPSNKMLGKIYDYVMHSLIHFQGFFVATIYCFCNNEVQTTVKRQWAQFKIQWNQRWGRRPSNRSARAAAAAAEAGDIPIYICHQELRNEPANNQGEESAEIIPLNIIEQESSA
T1 sequence (O60896 24-148 partner): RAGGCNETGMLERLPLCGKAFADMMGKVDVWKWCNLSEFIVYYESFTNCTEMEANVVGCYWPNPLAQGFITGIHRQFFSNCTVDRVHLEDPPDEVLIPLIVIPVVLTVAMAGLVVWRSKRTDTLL
Briefly: ASSAY (V) binding to the human amylin receptor (SPA, 125I-rat amylin).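 Further: competition binding of cell membranes (35 ng/µL) mixed with SPA beads in 384-well plates at 40 µL total volume, read by scintillation counting.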

Data set [3] deals with T2, rat calcitonin receptor (Rattus norvegicus, UniProt P32214).
T2 construct: expressed in transfected cells; host or cells: BHK tk'ts 13 (transient, FuGENE 6), membranes
T2 sequence (P32214 25-479 isoform P32214-2 limits assumed): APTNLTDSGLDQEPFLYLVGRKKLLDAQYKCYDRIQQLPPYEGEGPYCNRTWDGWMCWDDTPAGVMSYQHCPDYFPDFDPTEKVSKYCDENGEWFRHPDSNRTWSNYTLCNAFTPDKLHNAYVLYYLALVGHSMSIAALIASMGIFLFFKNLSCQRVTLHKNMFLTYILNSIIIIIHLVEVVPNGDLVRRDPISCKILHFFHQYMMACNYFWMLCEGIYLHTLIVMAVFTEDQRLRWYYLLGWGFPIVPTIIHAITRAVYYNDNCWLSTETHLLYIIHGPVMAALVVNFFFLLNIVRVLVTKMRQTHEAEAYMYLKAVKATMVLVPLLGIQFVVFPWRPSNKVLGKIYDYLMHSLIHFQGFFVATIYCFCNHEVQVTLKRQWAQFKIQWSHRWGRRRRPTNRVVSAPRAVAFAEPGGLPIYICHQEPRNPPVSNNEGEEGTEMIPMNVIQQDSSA
Nature of the data set: ASSAY (VIII) binding to the rat calcitonin receptor. As to conditions: Table 7, read-out: rCTR bind IC50. A digest of the protocol: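 BHK tk′ts 13 cells, transient rat calcitonin receptor transfection; DMEM + 10% FBS; harvest ~48 h post-transfection; membrane prep.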

The mark [4] stands for this setting: bistrispropane buffer, pH 6.5, read-out: Solubility pH 6.5 Concentration.
Setting [5] is: bistrispropane buffer, pH 7.5, read-out: Solubility pH 7.5 Concentration.
Setting [6] is: bistrispropane buffer, pH 6.0, read-out: Solubility pH 6.0 Concentration.
Where [7] appears, read: bistrispropane buffer, pH 7.0, read-out: Solubility pH 7.0 Concentration.
The mark [8] stands for this setting: bistrispropane buffer, pH 8.0, read-out: Solubility pH 8.0 Concentration.
Setting [9] is: glycylglycine buffer, pH 3.0, read-out: Solubility pH 3.0 Concentration.
The mark [10] stands for this setting: glycylglycine buffer, pH 4.0, read-out: Solubility pH 4.0 Concentration.
Setting [11] is: glycylglycine buffer, pH 5.0, read-out: Solubility pH 5.0 Concentration.
Where [12] appears, read: Table 5, selectivity, hCTR bind IC50 / hAmylin-R bind IC50.
[13] abbreviates: Table 5a, selectivity, hCTR bind IC50 / hAmylin-R bind IC50.
The mark [14] stands for this setting: Table 5b, selectivity, hCTR bind IC50 / hAmylin-R bind IC50.
The mark [15] stands for this setting: Table 5c, selectivity, hCTR bind IC50 / hAmylin-R bind IC50.
The mark [16] stands for this setting: Table 7, human binding selectivity, included for comparison.
The mark [17] stands for this setting: Table 7a (preferred compounds), human binding selectivity, included for comparison.
[18] abbreviates: ratio of human calcitonin receptor binding IC50 to human amylin receptor binding IC50.

Structures are written as SMILES. In brackets after ≈: the same amount, converted by molar mass. Where two headings read alike, the source gives them in different places. Numbered stars: 1 amine (or outer) side, 2 acyl side, 3 side chain; on linkers, the order of the positions; unused ones are H or OH. Bridge positions count the residues as written; N and C are the ends. Side chains are listed from the residue outwards. Peptide text beside a SMILES is read from it. * marks the point of attachment. C20 diacid = O=C(O)CCCCCCCCCCCCCCCCCCC(=O)*; γGlu = O=C(O)[C@H](CCC(=O)[*:2])N[*:1] A value given as a limit tells only on which side of the number the result lay.

In the case of `CC[C@H](C)[C@H](NC(=O)[C@H](C)NC(=O)CNC(=O)[C@H](Cc1ccccc1)NC(=O)[C@H](CC(N)=O)NC(=O)[C@@H]1CCCN1C(=O)[C@H](CO)NC(=O)[C@H](CO)NC(=O)[C@H](Cc1c[nH]cn1)NC(=O)[C@H](CCCNC(=N)N)NC(=O)[C@H](CC(C)C)NC(=O)[C@H](Cc1ccccc1)NC(=O)[C@H](Cc1c[nH]cn1)NC(=O)[C@H](C)NC(=O)[C@H](CC(C)C)NC(=O)[C@H](CCCNC(=N)N)NC(=O)[C@H](CCC(N)=O)NC(=O)[C@@H](NC(=O)[C@H](C)NC(=O)[C@@H]1CSSC[C@H](NC(=O)[C@@H](N)CCCCNC(=O)CC[C@H](NC(=O)CCCCCCCCCCCCCCCCCCC(=O)O)C(=O)O)C(=O)N[C@@H](CC(N)=O)C(=O)N[C@@H]([C@@H](C)O)C(=O)N[C@@H](C)C(=O)N[C@@H]([C@@H](C)O)C(=O)N1)[C@@H](C)O)C(=O)N1CCC[C@H]1C(=O)N[C@@H](CO)C(=O)N[C@@H](CO)C(=O)N[C@H](C(=O)N1CCC[C@H]1C(=O)N[C@H](C(=O)NCC(=O)N1CCC[C@H]1C(=O)N[C@@H](CC(N)=O)C(=O)N[C@H](C(=O)N[C@@H](Cc1ccc(O)cc1)C(N)=O)[C@@H](C)O)C(C)C)[C@@H](C)O` [Example 116] (H-K([γGlu-C20 diacid])CNTATCATQRLAHFLRHSSPNFGAIPSSTPVGPNTY-NH2; disulfide 2-7), the solubility at 18 h is ≥ 200 µM in data set [1] (setting [4]); ≥ 200 µM in data set [1] (setting [5]); ≥ 200 µM in data set [1] (setting [6]); ≥ 200 µM in data set [1] (setting [7]); 180 µM (≈ 791 µg/mL) in data set [1] (setting [8]); ≥ 200 µM in data set [1] (setting [9]). The solubility at 18 h in data set [1] (setting [10]) and in data set [1] (setting [11]) was ≥ 200 µM throughout. Also, the “Ratio hCT/hAmylin binding” value in data set [2] (setting [12]), in data set [2] (setting [13]), in data set [2] (setting [14]), in data set [2] (setting [15]), in data set [2] (setting [16]) and in data set [2] (setting [17]) was 24.8 throughout. For the same compound, the “Ratio hCT/hAmylin binding” value in data set [2] (setting [18]) is 24.8. Moreover, the IC50 in data set [3] worked out at 9.05 nM.

On to `CC[C@H](C)[C@H](NC(=O)[C@H](C)NC(=O)CNC(=O)[C@H](Cc1ccccc1)NC(=O)[C@H](CC(N)=O)NC(=O)[C@@H]1CCCN1C(=O)[C@H](CO)NC(=O)[C@H](CO)NC(=O)[C@H](Cc1c[nH]cn1)NC(=O)[C@H](CCCNC(=N)N)NC(=O)[C@H](CC(C)C)NC(=O)[C@H](Cc1ccccc1)NC(=O)[C@H](CCC(=O)O)NC(=O)[C@H](C)NC(=O)[C@H](CC(C)C)NC(=O)[C@H](CCCNC(=N)N)NC(=O)[C@H](CCC(N)=O)NC(=O)[C@@H](NC(=O)[C@H](C)NC(=O)[C@@H]1CSSC[C@H](NC(=O)[C@H](CCCCN)NC(=O)CC[C@H](NC(=O)CCCCCCCCCCCCCCCCCCC(=O)O)C(=O)O)C(=O)N[C@@H](CC(N)=O)C(=O)N[C@@H]([C@@H](C)O)C(=O)N[C@@H](C)C(=O)N[C@@H]([C@@H](C)O)C(=O)N1)[C@@H](C)O)C(=O)N[C@@H](CC(C)C)C(=O)N1CCC[C@H]1C(=O)N[C@@H](CO)C(=O)N[C@H](C(=O)N[C@@H](CC(N)=O)C(=O)N[C@H](C(=O)NCC(=O)N[C@@H](CO)C(=O)N[C@@H](CCC(=O)O)C(=O)N[C@H](C(=O)N[C@@H](Cc1ccc(O)cc1)C(N)=O)[C@@H](C)O)C(C)C)[C@@H](C)O` [Example 33] ({C20 diacid-γGlu}-KCNTATCATQRLAEFLRHSSPNFGAILPSTNVGSETY-NH2; disulfide 2-7), for which the solubility at 18 h in data set [1] (setting [4]), in data set [1] (setting [5]), in data set [1] (setting [6]), in data set [1] (setting [7]), in data set [1] (setting [8]) and in data set [1] (setting [9]) was ≥ 200 µM throughout. In addition, the solubility at 18 h in data set [1] (setting [10]) and in data set [1] (setting [11]) was ≥ 200 µM each time. Also, the IC50 is 0.915 nM in data set [2] (Table 4, read-out: hAmylin-R bind IC50) and 28.9 nM in data set [3]. Besides, the “Ratio hCT/hAmylin binding” value in data set [2] (setting [12]), in data set [2] (setting [16]) and in data set [2] (setting [17]) was 3.9 each time.

For the compound `CC[C@H](C)[C@H](NC(=O)[C@H](C)NC(=O)CNC(=O)[C@H](Cc1ccccc1)NC(=O)[C@H](CC(N)=O)NC(=O)[C@@H]1CCCN1C(=O)[C@H](CO)NC(=O)[C@H](CO)NC(=O)[C@H](Cc1c[nH]cn1)NC(=O)[C@H](CCCNC(=N)N)NC(=O)[C@H](CC(C)C)NC(=O)[C@H](Cc1ccccc1)NC(=O)[C@H](CC(N)=O)NC(=O)[C@H](C)NC(=O)[C@H](CC(C)C)NC(=O)[C@H](CCCNC(=N)N)NC(=O)[C@H](CCC(N)=O)NC(=O)[C@@H](NC(=O)[C@H](C)NC(=O)[C@@H]1CSSC[C@H](NC(=O)[C@@H](N)CCCCNC(=O)COCCOCCNC(=O)COCCOCCNC(=O)CC[C@H](NC(=O)CCCCCCCCCCCCCCCCCCC(=O)O)C(=O)O)C(=O)N[C@@H](CC(N)=O)C(=O)N[C@@H]([C@@H](C)O)C(=O)N[C@@H](C)C(=O)N[C@@H]([C@@H](C)O)C(=O)N1)[C@@H](C)O)C(=O)N1CCC[C@H]1C(=O)N[C@@H](CO)C(=O)N[C@@H](CO)C(=O)N[C@H](C(=O)N[C@@H](CC(N)=O)C(=O)N[C@H](C(=O)NCC(=O)N[C@@H](CO)C(=O)N[C@@H](CCC(=O)O)C(=O)N[C@H](C(=O)N[C@@H](Cc1ccc(O)cc1)C(N)=O)[C@@H](C)O)C(C)C)[C@@H](C)O` [Example 25], the solubility at 18 h in data set [1] (setting [4]), in data set [1] (setting [5]), in data set [1] (setting [6]), in data set [1] (setting [7]), in data set [1] (setting [8]) and in data set [1] (setting [9]) was ≥ 200 µM in each case. The solubility at 18 h in data set [1] (setting [10]) and in data set [1] (setting [11]) was ≥ 200 µM throughout. Also, the “Ratio hCT/hAmylin binding” value in data set [2] (setting [12]), in data set [2] (setting [13]), in data set [2] (setting [14]), in data set [2] (setting [15]), in data set [2] (setting [16]) and in data set [2] (setting [17]) was 56.5 throughout. The “Ratio hCT/hAmylin binding” value in data set [2] (setting [18]) came to 56.5. Further, in data set [3], the 50% inhibitory concentration (IC50) came out at 131 nM.

By IC50 is commonly meant the concentration that gives 50% inhibition.
